One block for each compound: values may come before it.
Experiments:
Mus musculus [1] = test: The compound was tested in vivo(ob/ob mouse) for intestinal absorption against plasma glucose at a concentration of 100 mg/kg/day.; assay type: functional
Mus musculus [2] = test: The compound was tested in vivo(ob/ob mouse) for intestinal absorption against insulin, at a concentration of 100 mg/kg/day.; assay type: functional
Mus musculus [3] = test: The compound was tested in vivo(ob/ob mouse) for intestinal absorption against plasma glucose at a concentration of 90 mg/kg/day.; assay type: functional
Mus musculus [4] = test: The compound was tested in vivo(ob/ob mouse) for intestinal absorption against insulin, at a concentration of 90 mg/kg/day.; assay type: functional
[5] = target: T1, Receptor-type tyrosine-protein phosphatase C (Homo sapiens, UniProt P08575); test: The compound was tested in vitro for the inhibitory activity against CD45 antigen (human PTPases.)
T1 sequence (P08575 whole entry): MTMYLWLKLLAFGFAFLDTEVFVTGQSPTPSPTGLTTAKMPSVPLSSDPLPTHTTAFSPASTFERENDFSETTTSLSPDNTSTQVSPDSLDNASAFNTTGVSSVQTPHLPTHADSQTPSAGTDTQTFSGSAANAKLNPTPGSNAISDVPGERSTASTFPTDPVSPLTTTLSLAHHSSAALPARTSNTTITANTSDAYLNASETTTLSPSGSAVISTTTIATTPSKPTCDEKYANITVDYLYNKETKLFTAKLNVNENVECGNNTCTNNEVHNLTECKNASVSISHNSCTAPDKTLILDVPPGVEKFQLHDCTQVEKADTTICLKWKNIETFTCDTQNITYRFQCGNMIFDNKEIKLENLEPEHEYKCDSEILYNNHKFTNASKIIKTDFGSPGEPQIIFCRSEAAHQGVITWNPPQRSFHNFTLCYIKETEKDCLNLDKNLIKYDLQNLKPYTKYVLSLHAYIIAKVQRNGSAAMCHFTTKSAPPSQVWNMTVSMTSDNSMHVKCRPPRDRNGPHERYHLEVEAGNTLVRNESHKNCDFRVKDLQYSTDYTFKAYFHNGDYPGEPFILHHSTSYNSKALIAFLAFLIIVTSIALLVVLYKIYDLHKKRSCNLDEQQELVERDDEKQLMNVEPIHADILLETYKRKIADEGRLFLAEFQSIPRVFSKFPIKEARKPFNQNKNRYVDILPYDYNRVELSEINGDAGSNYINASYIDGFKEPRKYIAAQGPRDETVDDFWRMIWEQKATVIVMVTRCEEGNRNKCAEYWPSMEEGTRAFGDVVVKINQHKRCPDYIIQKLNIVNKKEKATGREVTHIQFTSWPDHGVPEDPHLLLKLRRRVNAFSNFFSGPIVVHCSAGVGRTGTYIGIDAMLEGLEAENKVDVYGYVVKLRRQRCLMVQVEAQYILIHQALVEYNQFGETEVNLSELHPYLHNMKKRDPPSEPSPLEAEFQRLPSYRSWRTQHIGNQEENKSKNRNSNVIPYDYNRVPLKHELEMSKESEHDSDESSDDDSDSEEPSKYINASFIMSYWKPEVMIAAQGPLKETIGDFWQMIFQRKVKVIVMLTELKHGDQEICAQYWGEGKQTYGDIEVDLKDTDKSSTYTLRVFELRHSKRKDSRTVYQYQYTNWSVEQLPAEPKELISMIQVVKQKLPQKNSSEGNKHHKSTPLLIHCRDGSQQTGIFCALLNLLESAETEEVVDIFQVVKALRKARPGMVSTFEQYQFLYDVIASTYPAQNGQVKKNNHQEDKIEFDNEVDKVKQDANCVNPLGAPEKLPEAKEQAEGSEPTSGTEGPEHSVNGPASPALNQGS

[6] = target: T2, Tyrosine-protein phosphatase non-receptor type 12 (Homo sapiens, UniProt Q05209); test: The compound was tested in vitro for the inhibitory activity against Protein tyrosine phosphatase PEST (SH-PTP1) (human PTPases.)
T2 sequence (Q05209 whole entry): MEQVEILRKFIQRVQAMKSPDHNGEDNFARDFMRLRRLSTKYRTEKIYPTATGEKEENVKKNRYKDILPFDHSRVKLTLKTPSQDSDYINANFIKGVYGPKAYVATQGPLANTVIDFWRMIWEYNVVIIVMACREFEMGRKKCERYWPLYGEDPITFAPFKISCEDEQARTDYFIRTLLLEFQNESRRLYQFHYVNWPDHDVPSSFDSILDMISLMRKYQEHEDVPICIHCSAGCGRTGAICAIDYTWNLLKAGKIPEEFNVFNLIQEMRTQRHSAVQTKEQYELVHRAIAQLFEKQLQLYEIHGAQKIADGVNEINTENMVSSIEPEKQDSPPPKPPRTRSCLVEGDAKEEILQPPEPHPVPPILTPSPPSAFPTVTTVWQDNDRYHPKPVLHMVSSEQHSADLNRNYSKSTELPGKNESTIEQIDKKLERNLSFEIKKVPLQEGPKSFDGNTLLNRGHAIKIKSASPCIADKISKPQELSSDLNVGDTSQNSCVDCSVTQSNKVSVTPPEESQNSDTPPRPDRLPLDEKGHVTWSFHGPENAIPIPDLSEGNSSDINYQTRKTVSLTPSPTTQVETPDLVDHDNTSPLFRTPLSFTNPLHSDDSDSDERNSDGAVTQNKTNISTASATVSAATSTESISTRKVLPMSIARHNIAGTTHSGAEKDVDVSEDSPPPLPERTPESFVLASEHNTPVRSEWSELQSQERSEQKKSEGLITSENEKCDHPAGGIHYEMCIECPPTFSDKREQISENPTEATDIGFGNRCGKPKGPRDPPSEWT

[7] = The compound was tested in vitro for the inhibitory activity against human HePTP360 (Hematopoietic protein tyrosine phosphatase)
Mus musculus [8] = test: The compound was tested in vivo(ob/ob mouse) for intestinal absorption against plasma glucose at a concentration of 25 mg/kg/day.; assay type: functional
[9] = target: Receptor-type tyrosine-protein phosphatase beta (Homo sapiens, UniProt P23467); test: The compound was tested in vitro for the inhibitory activity against Protein-tyrosine phosphatase beta (SH-PTP1) (human PTPases.)
Sequence of Receptor-type tyrosine-protein phosphatase beta (P23467 whole entry): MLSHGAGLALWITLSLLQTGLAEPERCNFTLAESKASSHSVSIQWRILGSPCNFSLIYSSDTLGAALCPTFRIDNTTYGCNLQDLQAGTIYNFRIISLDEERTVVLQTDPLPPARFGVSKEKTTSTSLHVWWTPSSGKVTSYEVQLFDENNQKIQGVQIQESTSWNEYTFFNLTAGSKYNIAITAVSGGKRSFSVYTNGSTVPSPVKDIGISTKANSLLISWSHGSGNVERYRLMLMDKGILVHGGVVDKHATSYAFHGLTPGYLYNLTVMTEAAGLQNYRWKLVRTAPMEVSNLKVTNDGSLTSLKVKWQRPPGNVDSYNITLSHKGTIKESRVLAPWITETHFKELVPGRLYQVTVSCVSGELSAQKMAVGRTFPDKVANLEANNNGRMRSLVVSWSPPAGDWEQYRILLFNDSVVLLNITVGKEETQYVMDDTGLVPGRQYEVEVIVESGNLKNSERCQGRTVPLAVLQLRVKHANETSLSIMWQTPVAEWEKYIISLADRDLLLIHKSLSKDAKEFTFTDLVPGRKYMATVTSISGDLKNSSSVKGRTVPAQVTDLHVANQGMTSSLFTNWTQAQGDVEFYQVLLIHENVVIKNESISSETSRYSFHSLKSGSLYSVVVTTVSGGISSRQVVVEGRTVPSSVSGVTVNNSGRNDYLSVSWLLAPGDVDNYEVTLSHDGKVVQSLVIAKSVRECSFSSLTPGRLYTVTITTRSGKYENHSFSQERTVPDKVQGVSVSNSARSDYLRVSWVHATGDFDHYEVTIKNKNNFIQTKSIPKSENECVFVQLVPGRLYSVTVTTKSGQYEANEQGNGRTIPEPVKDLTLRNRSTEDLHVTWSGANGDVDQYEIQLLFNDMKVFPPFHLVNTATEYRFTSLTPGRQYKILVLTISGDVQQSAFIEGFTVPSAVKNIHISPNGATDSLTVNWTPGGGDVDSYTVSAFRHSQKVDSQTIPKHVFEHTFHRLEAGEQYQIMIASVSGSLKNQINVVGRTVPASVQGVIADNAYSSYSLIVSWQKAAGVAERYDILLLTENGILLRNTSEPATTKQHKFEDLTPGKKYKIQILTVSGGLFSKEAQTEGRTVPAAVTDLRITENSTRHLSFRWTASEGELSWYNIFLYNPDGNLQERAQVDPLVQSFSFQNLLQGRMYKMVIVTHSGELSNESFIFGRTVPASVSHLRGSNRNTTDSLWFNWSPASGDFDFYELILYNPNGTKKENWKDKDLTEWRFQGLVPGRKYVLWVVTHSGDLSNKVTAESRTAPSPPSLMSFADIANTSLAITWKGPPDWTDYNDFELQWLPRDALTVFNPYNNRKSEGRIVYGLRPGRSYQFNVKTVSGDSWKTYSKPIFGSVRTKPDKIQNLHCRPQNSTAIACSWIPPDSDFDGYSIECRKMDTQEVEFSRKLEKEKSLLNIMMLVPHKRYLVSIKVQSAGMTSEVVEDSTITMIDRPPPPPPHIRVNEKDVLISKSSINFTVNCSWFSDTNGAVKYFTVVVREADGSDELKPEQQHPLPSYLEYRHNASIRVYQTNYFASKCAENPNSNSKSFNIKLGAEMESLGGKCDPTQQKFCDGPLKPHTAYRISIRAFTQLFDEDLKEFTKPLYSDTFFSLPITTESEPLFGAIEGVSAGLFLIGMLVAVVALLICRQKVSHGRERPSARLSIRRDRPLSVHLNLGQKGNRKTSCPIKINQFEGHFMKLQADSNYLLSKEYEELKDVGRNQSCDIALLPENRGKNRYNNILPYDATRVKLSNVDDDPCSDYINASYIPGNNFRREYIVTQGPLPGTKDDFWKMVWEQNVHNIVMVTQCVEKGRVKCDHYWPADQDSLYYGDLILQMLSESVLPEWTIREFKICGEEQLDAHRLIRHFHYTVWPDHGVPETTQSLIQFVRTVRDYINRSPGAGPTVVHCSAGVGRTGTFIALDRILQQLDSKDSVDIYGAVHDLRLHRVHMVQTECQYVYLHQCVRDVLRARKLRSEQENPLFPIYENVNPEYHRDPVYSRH

Mus musculus [10] = test: The compound was tested in vivo(ob/ob mouse) for intestinal absorption against plasma glucose at a concentration of 1 mg/kg/day. (i.p.); assay type: functional; conditions: route intraperitoneal
Mus musculus [11] = test: The compound was tested in vivo(ob/ob mouse) for intestinal absorption against insulin, at a concentration of 25 mg/kg/day.; assay type: functional
Mus musculus [12] = test: The compound was tested in vivo(ob/ob mouse) for intestinal absorption against plasma glucose at a concentration of 10 mg/kg/day.; assay type: functional
Mus musculus [13] = test: The compound was tested in vivo(ob/ob mouse) for intestinal absorption against plasma glucose at a concentration of 5 mg/kg/day.; assay type: functional
[14] = target: T3, Tyrosine-protein phosphatase non-receptor type 1 (Homo sapiens, UniProt P18031); test: The compound was tested in vitro for the inhibitory activity against hPTP1B (human PTPases.)
T3 sequence (P18031 whole entry): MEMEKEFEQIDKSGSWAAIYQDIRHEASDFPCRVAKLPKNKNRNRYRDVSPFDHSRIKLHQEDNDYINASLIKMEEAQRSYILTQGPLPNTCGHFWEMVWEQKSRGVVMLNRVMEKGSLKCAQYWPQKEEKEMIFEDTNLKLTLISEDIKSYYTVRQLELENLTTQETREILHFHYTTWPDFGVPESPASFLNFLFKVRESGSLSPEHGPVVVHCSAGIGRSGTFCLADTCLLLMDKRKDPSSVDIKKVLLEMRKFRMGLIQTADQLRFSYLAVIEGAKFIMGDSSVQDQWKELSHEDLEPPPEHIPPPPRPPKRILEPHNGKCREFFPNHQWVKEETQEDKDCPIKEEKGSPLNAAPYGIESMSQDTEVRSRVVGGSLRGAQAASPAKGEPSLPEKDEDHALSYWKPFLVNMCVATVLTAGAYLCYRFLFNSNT

[15] = target: Tyrosine-protein phosphatase non-receptor type 6 (Homo sapiens, UniProt P29350); test: The compound was tested in vitro for the inhibitory activity against Protein-tyrosine phosphatase 1C (SH-PTP1) (human PTPases.)
Sequence of Tyrosine-protein phosphatase non-receptor type 6 (P29350 whole entry): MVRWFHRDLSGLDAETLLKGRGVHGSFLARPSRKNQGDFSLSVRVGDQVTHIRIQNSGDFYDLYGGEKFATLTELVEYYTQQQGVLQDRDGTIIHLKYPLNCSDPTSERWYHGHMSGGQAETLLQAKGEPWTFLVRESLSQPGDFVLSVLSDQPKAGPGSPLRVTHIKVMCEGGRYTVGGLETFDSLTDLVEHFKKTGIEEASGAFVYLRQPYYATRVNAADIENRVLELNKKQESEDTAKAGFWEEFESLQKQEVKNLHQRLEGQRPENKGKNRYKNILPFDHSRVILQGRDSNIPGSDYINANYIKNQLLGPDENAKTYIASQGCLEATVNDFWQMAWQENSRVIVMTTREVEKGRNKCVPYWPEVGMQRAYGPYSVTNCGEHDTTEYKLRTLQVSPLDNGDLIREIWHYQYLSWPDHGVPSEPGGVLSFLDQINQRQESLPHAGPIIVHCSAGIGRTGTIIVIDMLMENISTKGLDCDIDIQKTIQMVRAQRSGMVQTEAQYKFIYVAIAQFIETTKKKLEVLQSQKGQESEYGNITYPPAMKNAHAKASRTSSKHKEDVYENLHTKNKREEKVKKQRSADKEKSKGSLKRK

Mus musculus [16] = test: The compound was tested in vivo(ob/ob mouse) for intestinal absorption against insulin, at a concentration of 5 mg/kg/day.; assay type: functional
[17] = target: Dual specificity protein phosphatase 3 (Homo sapiens, UniProt P51452); test: The compound was tested in vitro for the inhibitory activity against Dual specificity protein phosphatase 3 (SH-PTP1) (human PTPases.)
Sequence of Dual specificity protein phosphatase 3 (P51452 whole entry): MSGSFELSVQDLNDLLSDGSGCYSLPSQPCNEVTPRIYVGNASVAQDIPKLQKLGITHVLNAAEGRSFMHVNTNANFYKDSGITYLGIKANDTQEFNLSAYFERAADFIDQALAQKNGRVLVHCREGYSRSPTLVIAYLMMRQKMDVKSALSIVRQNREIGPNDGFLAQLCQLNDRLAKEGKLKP

[18] = target: Receptor-type tyrosine-protein phosphatase alpha (Homo sapiens, UniProt P18433); test: The compound was tested in vitro for the inhibitory activity against Protein-tyrosine phosphatase 1 alpha (LRP) (human PTPases.)
Sequence of Receptor-type tyrosine-protein phosphatase alpha (P18433 whole entry): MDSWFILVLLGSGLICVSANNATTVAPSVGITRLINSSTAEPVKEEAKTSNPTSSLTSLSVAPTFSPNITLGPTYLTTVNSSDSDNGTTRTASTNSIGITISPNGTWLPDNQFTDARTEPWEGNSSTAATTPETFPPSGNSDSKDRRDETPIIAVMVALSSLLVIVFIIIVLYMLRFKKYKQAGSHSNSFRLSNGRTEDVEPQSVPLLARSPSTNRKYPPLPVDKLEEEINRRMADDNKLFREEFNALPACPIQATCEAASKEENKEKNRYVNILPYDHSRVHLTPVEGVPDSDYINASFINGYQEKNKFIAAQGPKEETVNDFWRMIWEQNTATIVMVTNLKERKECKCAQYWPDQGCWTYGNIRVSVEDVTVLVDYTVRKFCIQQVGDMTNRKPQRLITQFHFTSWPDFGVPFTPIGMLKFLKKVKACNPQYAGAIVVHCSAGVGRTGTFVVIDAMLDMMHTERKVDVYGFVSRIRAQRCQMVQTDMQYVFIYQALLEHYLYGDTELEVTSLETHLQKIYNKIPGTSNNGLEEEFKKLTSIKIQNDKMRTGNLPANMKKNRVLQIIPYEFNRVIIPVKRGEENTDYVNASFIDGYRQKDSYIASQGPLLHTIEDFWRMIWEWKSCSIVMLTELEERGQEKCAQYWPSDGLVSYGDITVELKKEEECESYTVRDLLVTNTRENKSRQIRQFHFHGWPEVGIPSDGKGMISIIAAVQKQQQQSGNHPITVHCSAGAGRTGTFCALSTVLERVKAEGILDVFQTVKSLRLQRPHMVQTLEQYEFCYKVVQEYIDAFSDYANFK

Mus musculus [19] = test: The compound was tested in vivo(ob/ob mouse) for intestinal absorption against insulin, at a concentration of 10 mg/kg/day.; assay type: functional
Mus musculus [20] = test: The compound was tested in vivo(ob/ob mouse) for intestinal absorption against plasma glucose at a concentration of 200 mg/kg/day.; assay type: functional
Mus musculus [21] = test: The compound was tested in vivo(ob/ob mouse) for intestinal absorption against insulin, at a concentration of 200 mg/kg/day.; assay type: functional
Mus musculus [22] = test: The compound was tested in vivo(ob/ob mouse) for intestinal absorption against plasma glucose at a concentration of 50 mg/kg/day.; assay type: functional
Mus musculus [23] = test: The compound was tested in vivo(ob/ob mouse) for intestinal absorption against plasma glucose at a concentration of 75 mg/kg/day.; assay type: functional
Mus musculus [24] = test: The compound was tested in vivo(ob/ob mouse) for intestinal absorption against insulin, at a concentration of 50 mg/kg/day.; assay type: functional
Mus musculus [25] = test: The compound was tested in vivo(ob/ob mouse) for intestinal absorption against insulin, at a concentration of 75 mg/kg/day.; assay type: functional
[26] = target: T3, Tyrosine-protein phosphatase non-receptor type 1; test: The compound was tested in vitro for the inhibitory activity against Protein-tyrosine phosphatase 1B (human PTPases.)
[27] = target: T3, Tyrosine-protein phosphatase non-receptor type 1; test: The compound was tested for inhibitory activity against recombinant Protein-tyrosine phosphatase 1B (human).

Compound: CC1(COc2ccc(CC3SC(=O)NC3=O)cc2)CCCCC1 (centres undefined) [CIGLITAZONE]
inhibition in vivo at 100 mg/kg/day (Mus musculus [1]): 43% | inhibition in vivo at 100 mg/kg/day (Mus musculus [2]): 39%

Compound: O=P(O)(O)COc1c(Br)cc(-c2c3ccccc3c(Br)c3sc4ccccc4c23)cc1Br
Decrease (Mus musculus [3]): <15% | Decrease (Mus musculus [4]): <15%

IC50 [5]: 6300 nM | IC50 [6]: 2200 nM | IC50 [7]: 2100 nM | IC50 [9]: 500 nM | IC50 [14]: 80 nM | IC50 [15]: 9000 nM | IC50 [17]: 11000 nM | IC50 [18]: 13000 nM
Compound: O=C(O)[C@@H](Cc1ccccc1)Oc1c(Br)cc(-c2c3ccccc3c(Br)c3oc4ccccc4c23)cc1Br
Decrease (Mus musculus [8]): 42% | Decrease (Mus musculus [10]): 38% | Decrease (Mus musculus [11]): 86% | Decrease (Mus musculus [12]): 29% | Decrease (Mus musculus [13]): <15% | Decrease (Mus musculus [16]): 56% | Decrease (Mus musculus [19]): 69%

Compound: Oc1c(Br)cc(-c2c3ccccc3c(Br)c3sc4ccccc4c23)cc1Br
Decrease (Mus musculus [1]): <15% | Decrease (Mus musculus [2]): <15%

Compound: Cc1c(C)c2c(c(C)c1O)CCC(C)(COc1ccc(CC3SC(=O)NC3=O)cc1)O2 (centres undefined) [TROGLITAZONE]
inhibition in vivo at 200 mg/kg/day (Mus musculus [20]): 34% | inhibition in vivo at 200 mg/kg/day (Mus musculus [21]): < 15%

Compound: O=C(O)[C@@H](Cc1ccccc1)Oc1c(Br)cc(-c2c3ccccc3c(Br)c3sc4ccccc4c23)cc1Br
Decrease (Mus musculus [8]): 26% | Decrease (Mus musculus [22]): 35% | Decrease (Mus musculus [11]): 72% | Decrease (Mus musculus [12]): 26% | Decrease (Mus musculus [23]): 50% | Decrease (Mus musculus [24]): 71% | Decrease (Mus musculus [25]): 85% | Decrease (Mus musculus [19]): <15%

IC50 [5]: 9100 nM | IC50 [6]: 2300 nM | IC50 [7]: 2700 nM | IC50 [9]: 600 nM | IC50 [15]: 5000 nM | IC50 [26]: 390 nM | IC50 [17]: 7900 nM | IC50 [18]: 17000 nM
Compound: O=C(O)COc1c(Br)cc(-c2c3ccccc3c(Br)c3sc4ccccc4c23)cc1Br
Decrease (Mus musculus [1]): 23% | Decrease (Mus musculus [2]): 61%

IC50 [27]: 11 nM
Compound: O=C(O)[C@@H](CCN1C(=O)c2ccccc2C1=O)Oc1c(Br)cc(-c2c3ccccc3c(Br)c3sc4ccccc4c23)cc1Br
inhibition in vivo at 100 mg/kg/day (Mus musculus [1]): < 15% | inhibition in vivo at 100 mg/kg/day (Mus musculus [2]): < 15%
